In patent publication US9422293B2 (priority 2006, dated 2016):
Counter-ions that a name gives are not always drawn.

molecular target: rat TRPV1 (Rattus norvegicus (Rat), UniProt O35433); conditions: read-out: Rat IC50
Sequence (O35433 whole entry): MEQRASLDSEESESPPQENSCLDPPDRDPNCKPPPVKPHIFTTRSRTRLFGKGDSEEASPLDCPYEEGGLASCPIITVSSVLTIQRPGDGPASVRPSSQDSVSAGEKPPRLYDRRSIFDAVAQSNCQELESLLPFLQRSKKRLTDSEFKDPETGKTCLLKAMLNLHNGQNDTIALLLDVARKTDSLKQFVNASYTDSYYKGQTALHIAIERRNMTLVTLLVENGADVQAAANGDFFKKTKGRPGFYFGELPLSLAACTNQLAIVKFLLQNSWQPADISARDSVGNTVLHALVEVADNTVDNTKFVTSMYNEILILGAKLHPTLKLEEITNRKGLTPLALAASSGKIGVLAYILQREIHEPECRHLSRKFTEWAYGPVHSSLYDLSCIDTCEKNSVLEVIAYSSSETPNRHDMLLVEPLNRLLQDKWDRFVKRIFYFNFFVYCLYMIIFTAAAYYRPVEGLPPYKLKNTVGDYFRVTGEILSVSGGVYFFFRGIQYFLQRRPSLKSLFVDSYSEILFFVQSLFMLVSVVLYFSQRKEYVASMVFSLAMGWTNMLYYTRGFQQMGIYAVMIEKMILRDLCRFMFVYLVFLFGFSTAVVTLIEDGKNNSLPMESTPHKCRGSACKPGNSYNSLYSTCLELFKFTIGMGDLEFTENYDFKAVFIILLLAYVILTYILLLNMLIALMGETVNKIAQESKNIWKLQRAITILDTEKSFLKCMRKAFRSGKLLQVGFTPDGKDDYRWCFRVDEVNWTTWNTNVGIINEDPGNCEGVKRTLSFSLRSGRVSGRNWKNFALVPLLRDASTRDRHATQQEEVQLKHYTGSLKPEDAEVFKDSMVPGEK

| SMILES | IC50 |
| --- | --- |
| OC[C@@H]1CCCN1c1nc2c(c(Nc3ccc(C(F)(F)F)cn3)n1)CCN(c1ncccc1C(F)(F)F)CC2 [Example 262, [(2S)-1-(7-[3-(Trifluoromethyl)pyridin-2-yl]-4-{[5-(trifluoromethyl)pyridin-2-yl]amino}-6,7,8,9-tetrahydro-5H-pyrimido[4,5-d]azepin-2-yl)pyrrolidin-2-yl]methanol hydrochloride salt] | 1640 nM |
| FC(F)(F)c1ccc(Nc2nc(N[C@@H]3CCOC3)nc3c2CCN(c2ncccc2C(F)(F)F)CC3)nc1 [Example 263, N^2-[(3R)-Tetrahydrofuran-3-yl]-7-[3-(trifluoromethyl)pyridin-2-yl]-N^4-[5-(trifluoromethyl)pyridin-2-yl]-6,7,8,9-tetrahydro-5H-pyrimido[4,5-d]azepine-2,4-diamine] | 1460 nM |
| CC(C)(C)c1ccc(Nc2nc(N[C@@H]3CCOC3)nc3c2CCN(c2ncccc2C(F)(F)F)CC3)cc1 [Example 264, N^4-[4-(1,1-Dimethylethyl)phenyl]-N^2-[(3R)-tetrahydrofuran-3-yl]-7-[3-(trifluoromethyl)pyridin-2-yl]-6,7,8,9-tetrahydro-5H-pyrimido[4,5-d]azepine-2,4-diamine] | 1300 nM |
| CC(C)N(C)c1nc2c(c(Nc3ccc(C(F)(F)F)nc3)n1)CCN(c1ncccc1C(F)(F)F)CC2 [Example 266, N^2-Methyl-N^2-(1-methylethyl)-7-[3-(trifluoromethyl)pyridin-2-yl]-N^4-[6-(trifluoromethyl)pyridin-3-yl]-6,7,8,9-tetrahydro-5H-pyrimido[4,5-d]azepine-2,4-diamine] | 450 nM |
| Cc1cc(C(F)(F)F)ccc1Nc1nc(N(C)C2CCCCC2)nc2c1CCN(c1ncccc1C(F)(F)F)CC2 [Example 267, N^2-Cyclohexyl-N^2-methyl-N^4-[2-methyl-4-(trifluoromethyl)phenyl]-7-[3-(trifluoromethyl)pyridin-2-yl]-6,7,8,9-tetrahydro-5H-pyrimido[4,5-d]azepine-2,4-diamine] | 1870 nM |
| FC(F)(F)c1ccc(Nc2nc(N3C4CCC3CC4)nc3c2CCN(c2ncccc2C(F)(F)F)CC3)cc1 [Example 268, 2-(7-Azabicyclo[2.2.1]hept-7-yl)-N-[4-(trifluoromethyl)phenyl]-7-[3-(trifluoromethyl)pyridin-2-yl]-6,7,8,9-tetrahydro-5H-pyrimido[4,5-d]azepin-4-amine] | 150 nM |
| Cc1cc(C(F)(F)F)ccc1Nc1nc(N2CCCC2C(C)C)nc2c1CCN(c1ncccc1C(F)(F)F)CC2 (stereo not shown) [Example 269, 2-[2-(1-Methylethyl)pyrrolidin-1-yl]-N-[2-methyl-4-(trifluoromethyl)phenyl]-7-[3-(trifluoromethyl)pyridin-2-yl]-6,7,8,9-tetrahydro-5H-pyrimido[4,5-d]azepin-4-amine] | 180 nM |
| FC(F)(F)c1ccc(Nc2nc(NCC3CCCCC3)nc3c2CCN(c2ncccc2C(F)(F)F)CC3)cn1 [Example 270, N^2-(Cyclohexylmethyl)-7-[3-(trifluoromethyl)pyridin-2-yl]-N^4-[6-(trifluoromethyl)pyridin-3-yl]-6,7,8,9-tetrahydro-5H-pyrimido[4,5-d]azepine-2,4-diamine] | 830 nM |
| OCC1CN(c2nc3c(c(Nc4ccc(C(F)(F)F)cc4)n2)CCN(c2ncccc2C(F)(F)F)CC3)CCO1 (stereo not shown) [Example 271, [4-(4-{[4-(Trifluoromethyl)phenyl]amino}-7-[3-(trifluoromethyl)pyridin-2-yl]-6,7,8,9-tetrahydro-5H-pyrimido[4,5-d]azepin-2-yl)morpholin-2-yl]methanol] | 840 nM |
| CC(C)N(C)c1nc2c(c(Nc3ccc(C(F)(F)F)cc3)n1)CCN(c1ncccc1C(F)(F)F)CC2 [Example 272, N^2-Methyl-N^2-(1-methylethyl)-N^4-[4-(trifluoromethyl)phenyl]-7-[3-(trifluoromethyl)pyridin-2-yl]-6,7,8,9-tetrahydro-5H-pyrimido[4,5-d]azepine-2,4-diamine] | 200 nM |
| Cc1cc(C(F)(F)F)ccc1Nc1nc(N2CCOC(CO)C2)nc2c1CCN(c1ncccc1C(F)(F)F)CC2 (stereo not shown) [Example 273, [4-(4-{[2-Methyl-4-(trifluoromethyl)phenyl]amino}-7-[3-(trifluoromethyl)pyridin-2-yl]-6,7,8,9-tetrahydro-5H-pyrimido[4,5-d]azepin-2-yl)morpholin-2-yl]methanol] | 680 nM |
| CN(c1nc2c(c(Nc3ccc(C(F)(F)F)nc3)n1)CCN(c1ncccc1C(F)(F)F)CC2)C1CCCCC1 [Example 275, N^2-Cyclohexyl-N^2-methyl-7-[3-(trifluoromethyl)pyridin-2-yl]-N^4-[6-(trifluoromethyl)pyridin-3-yl]-6,7,8,9-tetrahydro-5H-pyrimido[4,5-d]azepine-2,4-diamine] | 190 nM |
| Cc1ccccc1Nc1nc2c(c(Nc3ccc(C(F)(F)F)cc3)n1)CCN(c1ncccc1C(F)(F)F)CC2 [Example 278, N^2-(2-Methylphenyl)-N^4-[4-(trifluoromethyl)phenyl]-7-[3-(trifluoromethyl)pyridin-2-yl]-6,7,8,9-tetrahydro-5H-pyrimido[4,5-d]azepine-2,4-diamine trifluoroacetic acid salt] | 670 nM |
| Cc1cccc(Nc2nc3c(c(Nc4ccc(C(F)(F)F)cc4)n2)CCN(c2ncccc2C(F)(F)F)CC3)c1 [Example 279, N^2-(3-Methylphenyl)-N^4-[4-(trifluoromethyl)phenyl]-7-[3-(trifluoromethyl)pyridin-2-yl]-6,7,8,9-tetrahydro-5H-pyrimido[4,5-d]azepine-2,4-diamine trifluoroacetic acid salt] | > 6670 nM |
| CC(C)c1nc2c(c(Nc3ccc(C(F)(F)F)cc3)n1)CCN(c1ncccc1NS(C)(=O)=O)CC2 [Example 281, N-{2-[2-(1-Methylethyl)-4-{[4-(trifluoromethyl)phenyl]amino}-5,6,8,9-tetrahydro-7H-pyrimido[4,5-d]azepin-7-yl]pyridin-3-yl}methanesulfonamide] | 2620 nM |
| CC(C)c1nc2c(c(Nc3ccc(C(F)(F)F)nc3)n1)CCN(c1ncccc1S(C)(=O)=O)CC2 [Example 282, 2-(1-Methylethyl)-7-[3-(methylsulfonyl)pyridin-2-yl]-N-[6-(trifluoromethyl)pyridin-3-yl]-6,7,8,9-tetrahydro-5H-pyrimido[4,5-d]azepin-4-amine] | 130 nM |
| CS(=O)(=O)c1cccnc1N1CCc2ncnc(Nc3ccc(C(F)(F)F)cc3)c2CC1 [Example 283, 7-[3-(Methylsulfonyl)pyridin-2-yl]-N-[4-(trifluoromethyl)phenyl]-6,7,8,9-tetrahydro-5H-pyrimido[4,5-d]azepin-4-amine] | 8520 nM |
| CC(C)c1nc2c(c(Nc3ccc(C(C)(C)C)cc3)n1)CCN(c1ncccc1N)CC2 [Example 284, 7-(3-Aminopyridin-2-yl)-N-[4-(1,1-dimethylethyl)phenyl]-2-(1-methylethyl)-6,7,8,9-tetrahydro-5H-pyrimido[4,5-d]azepin-4-amine] | 550 nM |
| CC(C)c1nc2c(c(Nc3ccc(C(F)(F)F)cc3)n1)CCN(c1ncc(C(=O)O)cc1Cl)CC2 [Example 288, 5-Chloro-6-[2-(1-methylethyl)-4-{[4-(trifluoromethyl)phenyl]amino}-5,6,8,9-tetrahydro-7H-pyrimido[4,5-d]azepin-7-yl]pyridine-3-carboxylic acid trifluoroacetic acid salt] | 2020 nM |
